Source: patent publication US4336257A, “Novel 2-pyridylbenzimidazole compounds” (Merck & Co., Inc., priority 1980, dated 1982)
Like-named read-outs stand apart in the source and are kept apart here.

What was measured:
[1] = tested on: spontaneously hypertensive (SH) rat; experiment: antihypertensive activity in spontaneously hypertensive (SH) rat; assay type: in vivo; details: SH rat (footnote 1)
Experimental: (§1) The xanthine oxidase activity of representative compounds was determined using an in vitro test--the antihypertensive activity was determined by administration of said compounds to a spontaneously hypertensive (SH) or renal hypertensive (RH) rat. The X.O. inhibition is expressed as % inhibition of the enzyme at a present compound concentration of 2×10^-5 M.

[2] = target: T1, xanthine oxidase (Bos taurus, UniProt P80457); experiment: in vitro xanthine oxidase (X.O.) inhibition; assay type: biochemical
T1 sequence (P80457 whole entry): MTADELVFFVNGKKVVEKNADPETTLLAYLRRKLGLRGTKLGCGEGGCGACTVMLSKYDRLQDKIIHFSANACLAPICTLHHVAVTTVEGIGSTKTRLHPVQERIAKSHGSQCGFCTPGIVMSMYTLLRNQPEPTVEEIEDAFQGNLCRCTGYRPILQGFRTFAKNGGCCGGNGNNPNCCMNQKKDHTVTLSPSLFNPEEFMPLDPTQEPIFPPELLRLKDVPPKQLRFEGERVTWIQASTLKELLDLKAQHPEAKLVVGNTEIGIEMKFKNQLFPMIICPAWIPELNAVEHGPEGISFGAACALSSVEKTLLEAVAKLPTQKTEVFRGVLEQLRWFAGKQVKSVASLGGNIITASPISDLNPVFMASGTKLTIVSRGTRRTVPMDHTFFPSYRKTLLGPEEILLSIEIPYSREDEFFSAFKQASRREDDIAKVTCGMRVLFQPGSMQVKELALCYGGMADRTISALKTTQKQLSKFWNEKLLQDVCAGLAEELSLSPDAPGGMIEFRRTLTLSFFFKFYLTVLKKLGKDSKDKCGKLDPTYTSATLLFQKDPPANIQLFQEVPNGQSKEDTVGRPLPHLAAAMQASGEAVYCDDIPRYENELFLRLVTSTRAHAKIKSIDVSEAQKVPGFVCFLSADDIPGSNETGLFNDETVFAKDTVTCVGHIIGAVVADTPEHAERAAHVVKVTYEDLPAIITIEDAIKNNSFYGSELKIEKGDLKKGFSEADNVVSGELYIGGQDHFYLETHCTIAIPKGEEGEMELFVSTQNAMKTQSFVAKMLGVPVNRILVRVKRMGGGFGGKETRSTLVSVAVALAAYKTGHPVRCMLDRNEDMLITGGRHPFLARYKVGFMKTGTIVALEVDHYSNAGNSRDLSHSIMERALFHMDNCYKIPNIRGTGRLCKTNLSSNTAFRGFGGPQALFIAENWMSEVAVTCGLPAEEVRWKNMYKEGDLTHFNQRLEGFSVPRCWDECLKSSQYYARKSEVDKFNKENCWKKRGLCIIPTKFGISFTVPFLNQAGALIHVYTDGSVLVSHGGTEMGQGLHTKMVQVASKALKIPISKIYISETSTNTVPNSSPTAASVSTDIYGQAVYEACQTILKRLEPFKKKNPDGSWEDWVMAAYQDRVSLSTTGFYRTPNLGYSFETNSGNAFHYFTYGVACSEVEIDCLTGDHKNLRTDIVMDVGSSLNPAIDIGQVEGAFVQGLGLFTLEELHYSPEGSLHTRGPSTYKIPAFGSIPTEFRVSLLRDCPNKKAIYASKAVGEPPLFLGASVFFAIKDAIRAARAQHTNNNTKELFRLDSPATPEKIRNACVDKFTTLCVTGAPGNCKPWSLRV
Experimental: as §1, with “M. | .circle.* using in vitro test as described in J. Med. Chem. 20,” for “M.”

[3] = tested on: spontaneously hypertensive (SH) or renal hypertensive (RH) rat; experiment: antihypertensive activity in spontaneously hypertensive (SH) or renal hypertensive (RH) rat, model not specified; assay type: in vivo; details: model not marked
Experimental: as §1

[4] = tested on: renal hypertensive (RH) rat; experiment: antihypertensive activity in renal hypertensive (RH) rat; assay type: in vivo; details: RH rat (footnote 2)
Experimental: as §1

[5] = target: T1, xanthine oxidase; experiment: in vitro xanthine oxidase (X.O.) inhibition; assay type: biochemical; details: Table 2; amount 1.5 × 10^-5 m; read-out: X.O.I.
[6] = Table 1, compound concentration 2×10^-5 M, read-out: % X.O. Inhibition
[7] = Table 2, amount 2 × 10^-5 M, read-out: X.O.I.

| SMILES | A.H. Activity [1] | inhibition at 20 µM [2, 6] | also measured |
| --- | --- | --- | --- |
| Cc1cnc(-c2ccncc2)[nH]1 | yes | 4% |  |
| Cc1cnc(-c2cccnc2)[nH]1 | yes | 0% |  |
| c1cnc2[nH]c(-c3ccncc3)nc2c1 | yes | 8% |  |
| c1cncc(-c2nc3cccnc3[nH]2)c1 | yes | 5% |  |
| c1cc(-c2nc3cnccc3[nH]2)ccn1 | yes | 62% |  |
| c1cncc(-c2nc3cnccc3[nH]2)c1 |  | 23% | A.H. Activity [3]: no |
| Clc1ccc2[nH]c(-c3cccnc3)nc2c1 |  |  | inhibition at 20 µM [2, 7]: 0% |
| Clc1ccc2[nH]c(-c3ccncc3)nc2c1 [drawing 6] |  | 11% | A.H. Activity [4]: yes |
| Clc1cc2nc(-c3ccncc3)[nH]c2cc1Cl [drawing 7] |  | 56% | A.H. Activity [3]: no |
| Clc1ccc2[nH]c(-c3ccncc3)nc2c1 [drawing 13] |  |  | inhibition at 20 µM [2, 7]: 11% |
| Clc1cc2nc(-c3ccncc3)[nH]c2cc1Cl [drawing 14] |  |  | inhibition at 15 µM [5]: 50% |
